# Assay results from paper PMC5640650, “NatD promotes lung cancer progression by preventing histone H4 serine phosphorylation to activate Slug expression” (Nature Communications, 2017).
# Assays:
# LLC cells [1] = test: Transwell migration and invasion assay, LLC cells; format: cell-based, murine; conditions: LLC cells in vitro, vs Scr
# LLC cells [2] = test: Expression of EMT genes, LLC cells; format: cell-based, murine; conditions: vs Scr
# Method: Cellular proteins were extracted by RIPA lysis buffer at high salt concentration (420 mM NaCl), and western blot analysis was performed in accordance with standard protocols. Scans of enhanced chemiluminescence (ECL) films showing uncropped blots are presented in Supplementary Fig. 10. […]
# Total RNA from tissue samples and cultured cells was extracted using TRIzol reagent (Invitrogen). cDNAs were synthesized with a HiScript 1st Strand cDNA Synthesis Kit (Vazyme Biotech, China). Quantitative RT-PCR was performed using a FastStart Universal SYBR Green Master (Roche) according to the manufacturer’s instructions in a Rotor-Gene 6000 (Corbett Research) in a final volume of 20 μl. […]
# Representative blots from three independent experiments. […] (bottom) Cell migration and invasion expressed as a percentage of Scr control. […]
# Results are shown as mean ± s.d. from 5 mice; two-tailed Student’s t-test, **P<0.01 compared to Scr control. (e) Quantitative real-time PCR analysis of mRNA levels of NatD and key EMT-related genes in Scr control and NatD-KD LLC cells normalized to GAPDH. […]
substance,measurement,setting,value
"NatD-KD2: Human NatD shRNA KD2: 5′-GGTTGAATGTCTCCATTGA-3′, lentiviral (shRNA lentiviral)",migratory and invasive capabilities,LLC cells [1],significantly decreased
same,expression of E-cadherin,LLC cells [2],increased the expression
same,"expression of Slug, N-cadherin, and Vimentin",LLC cells [2],decreased the expression
